We go through one sequence from US7528226B2, “TGFβ1-inhibitor peptides” (Rojecto de Biomedicina Cima S.L., priority 1998, dated 2009).

For this assay, the target named is T1, TGFβ1 (Homo sapiens, UniProt P01137).
T1 construct: the mature TGFβ1 is released by another cut; purchased R&D Systems Europe Ltd., Abingdon, UK
It counts as cell-based. The following applies: TGFβ1 200 pg/ml. The protocol:
A line derived from mink pulmonary epithelium, MV-1-Lu, was used (CCL-64, American Type Cell Culture, Virginia, USA). The cells were grown in 162 cm^2 culture flasks (Costar Corporation, Cambridge, USA) in a stove at 37° C. and 5% CO2, until subconfluence was attained. A complete medium was used: RPMI 1640 with L-glutamine (GibcoBRL, Life Technologies Ltd., Paisley, Scotland) supplemented with 5% of foetal calf serum (FCS, Biological Industries, Kibbutz Beit Haemek, Israel), 10 mM HEPES (1M HEPES Buffer, Bio-Whittaker, Verviers, Belgium) and antibiotics (100 U/ml penicillin and 100 μ/ml streptomycin).
The MV-1-Lu cells grown as indicated above were removed from the bottom of the culture flasks using 5 ml of trypsin-EDTA (Biological Industries, Kibbutz Beit Haemek, Israel), resuspended in complete medium and centrifuged at 1500 rev/min for 8 minutes. After centrifugation the cells were resuspended in complete medium to a concentration of 50,000 cells/ml. For conducting the test, 10 ml of the cell suspension were taken and dispensed in 96-well, flat-bottom culture plates (Costar Corporation, Cambridge, USA), adding 100 μl/well, and were incubated overnight at 37° C. and 5% CO2, which permits adhesion of the cells to the bottom of the wells. […] The final concentration of FCS in the well was 2.5%. After 24 hours of incubation, 1 μCi of tritiated thymidine was added per well (25 Ci/mmol [methyl-^3H]-thymidine, Amersham Life Science, Buckinghamshire, UK) with incubation for a further 12 hours (Grubeck-Loebenstein B. et al. (1989) J. Clin. Invest. 83:764-770; Brennan F M et al. (1990) Clin. Exp. Immunol. 81:278-285).
At the end of the incubation periods the cells were removed from the bottom of the wells with trypsin-EDTA and were collected using a manual harvester (Titertek cell harvester, Skatron Instruments Inc., Sterling, USA) which ruptures the cells, collecting the DNA in nitrocellulose filters (Filter MAT 11731, Skatron Instruments Inc., Sterling, USA) where it is fixed. The filters were placed individually in 5 ml polypropylene tubes to which 4 ml of scintillation fluid was added (Biogreen-11, Reactivos Scharlau S. A., Barcelona, Spain). The activity of each tube was quantified for 90 seconds in a β LKB scintillation counter (Beta plate system, LKB, Uppsala, Sweden).
TGFβ1 is a cytokine that is able to inhibit the growth in vitro of the MV-1-Lu cell line (Grubeck-Loebenstein B. et al. (1989) J. Clin. Invest. 83:764-770; Brennan F M et al. (1990) Clin. Exp. Immunol. 81:278-285), therefore this line was used for testing the blocking effect of peptides on TGFβ1. After different combinations of media, cells and thymidine, we studied the effect of different concentrations of TGFβ1 on incorporation of [methyl-^3H]thymidine by MV-1-Lu cells in culture, for determining the most suitable conditions for the test. […]
The synthetic peptides that are potentially inhibitors of TGFβ1 activity, selected as indicated above in the section: selection of the peptides to be synthesized (both those derived from proteins that bind to TGFβ1 itself) were tested using the MV-1-Lu cell line. The selected peptides are soluble in buffered RPMI medium. The peptides were dissolved in buffered RPMI medium, free from foetal calf serum, and the following was used.
The peptides belonging to the sequence of the receptor, or complementary to the peaks of hydrophilicity of TGFβ1, were incubated for 30 minutes in the presence of this cytokine and were then combined with the cell culture. The peptides derived from the sequence of TGFβ1 were added to the cell culture prior to addition of TGFβ1, since they interact with the receptors of the cell surface. These incubations were effected in 100 μl of the same medium as was used for adding the cells. The active peptides permitted cell growth to a greater or lesser degree depending on its ability to inhibit TGFβ1.

No end group written: not given here.

T1 sequence (P01137 279-390): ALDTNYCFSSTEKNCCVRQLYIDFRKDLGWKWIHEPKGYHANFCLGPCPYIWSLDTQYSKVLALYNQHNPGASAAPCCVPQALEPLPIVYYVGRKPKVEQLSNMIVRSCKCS

As to “TSLDASIIWAMMQN [P144, ThrSerLeuAspAlaSerIleIleTrpAlaMetMetGlnAsn]”, the “dependence of the inhibitory activity on the peptide concentration” value (dose-response test) was “activity of the peptide decreases with the decrease in the concentration”. Also, where the note is “peptide 200 μg/ml, MV-1-Lu cells”, the “inhibitory activity of TGFβ1 (in words)” value is “had proved active”.
